In the assay the target is T1, mitochondrial electron transport chain complex I (NADH-ubiquinone oxidoreductase) (Homo sapiens, UniProt O75251+O75306+P03886).
T1 construct: gene NDUFS2; native multi-subunit complex in digitonin-permeabilized T47D cells
The assay is described as follows: oxygen consumption (Clark-type electrode) in permeabilized T47D cells with malate/pyruvate, succinate bypass; […]. The class given is cell-based.

As for `C=C[C@@H]1CSC(C[C@@H](C)[C@@H](C)C[C@H](C)CCN(C)C(=O)[C@H](C)CC)=N1` [kalkitoxin], the “oxygen consumption (Clark-type electrode) in permeabilized T47D cells with malat” value is reported as “kalkitoxin potently suppresses mitochondrial respiration in tumor cells by selectively inhibiting ETC complex I”.

Values taken from article PMC4377999, “Kalkitoxin Inhibits Angiogenesis, Disrupts Cellular Hypoxic Signaling, and Blocks Mitochondrial Electron Transport in Tumor Cells” (Marine Drugs, 2015).
